Where “and” joins values, the source holds several entries; their conditions need not be identical. Equal values may be shown once.
Tests used:
CRF-OE mice [1] = assay: Hair growth and skin pigmentation after ip injection in adult alopecic CRF-OE mice (Example 2); assay type: in vivo; parameters: key to Back Hair Growth Score (BK) / Ventral Abdomen Hair Growth Score (VAb): hair growth score 0-10: 0 = no change in hair, 10 = full hair growth; key to Skin pigmentation (Pg) score: pigment score 0-10: 0 = bright pink skin, 10 = fully black; settings: for Back Hair Growth Score (BK) / Skin pigmentation (Pg) score / Ventral Abdomen Hair Growth Score (VAb): adult male CRF-OE mice, individual mice and Ave.
Description: Hair growth in CRF-OE mice was assessed using the hair growth scale developed by Vegesna et al. […], 2002) modified to account for phenotypic differences between CRF-OE mice. Scores were made visually as well as using photographs of each mouse at a weekly interval. The degree of alopecia varied between individual CRF-OE mice; thus, the percent difference between the amount of hair present in the test area (described below) before and 4 weeks after treatment was converted to a score of 0-10. A zero score corresponded to a no change in the amount of hair in the test area and a score of 10 corresponded to full hair growth in the entire test area. The scale for monitoring hair growth in CRF-OE mice is more particularly described in Table 2.
Pigmentation of the skin (also referred to as skin color) in the test region was also measured because, in C57BL/6 mice, the skin darkens at the onset of hair growth. A pigmentation score from 0-10 was given to each mouse with a score of 0 corresponding to bright pink skin color/pigment in the entire test region, a score of 1-5 corresponding to increasing intensity of a pale greyish color/pigment of skin in the test region, a score of 6-9 corresponding to increasing but non-confluent darker color/pigment of skin in the test region, and a score of 10 corresponding to black pigmentation of the entire test region. Pigmentation was measured one week after the fifth and final injection because changes (if any) in pigmentation are substantially complete by that time.
CRF-OE mice (approximately 4 months old) with fully developed alopecia on their backs were injected intraperitoneally (ip) with equal volumes (0.1 ml) of either saline or astressin B (5 μg/mouse/day) for 5 consecutive days. Skin pigment score and hair growth (on the back) score were determined as described in Example 1. In addition, because adult CRF-OE mice also lose ventral abdomen hair, a ventral abdomen (Vab) hair growth score was determined. The area considered for scoring ventral abdomen hair growth was delineated, in the front (anteriorly), by a horizontal line across the tip of the xifoid process (distal sternum), in the rear (posteriorly), by a horizontal line joining the back of the thighs along the anus, and, laterally, by a straight line along the lateral side of the ventral abdomen on left and right sides.

CRF-OE mice [2] = assay: Long-term hair growth after sc injection in alopecic female CRF-OE mice (Example 5); assay type: in vivo; settings: two female CRF-OE mice; sc 5 μg/day x 5 days; four months after the final injection
Description: Two female CRF-OE mice, which had fully developed alopecia, received a single daily subcutaneous injection of 5 μg astressin B (in 0.1 ml saline) in the back for five consecutive days. Four (4) months after the final injection, the growth of hair on the backs of both mice was scored 9 out of 10. Similarly, two out of four male CRF-OE mice received intraperitoneal injection of 5 μg astressin B for five consecutive days. Thus, the mice not only grew hair in a previously bald (or balding) region, but such hair was maintained for months without on-going treatment.

young CRF-OE mice = settings: mouse, in vivo
Description: Each subcutaneous injection is given in a single puncture located along or about the midline of the back. Age-matched CRF-OE mice similarly injected with 0.1 ml vehicle alone are used as negative controls. Astressin B fragments are as described in Example 8. Alternatively, topical astressin B can be applied to the mouse's back, for example 0.05 mg, 0.5 mg, 5 mg, 50 mg, or 500 mg of an astressin B fragment once daily for at least five consecutive days
Hair growth (or hair loss) is assessed using the hair growth scale described in Example 1. The general conditions of treated and control mice, such as weight, back skin thickness, hair luster, skin wounds and indurations, are noted.

ACTH release = settings: adrenalectomized rats; similar doses; Rivier et al. 1999; cited from earlier work
CRF1/CRF2 receptor = CRF1/CRF2 receptor antagonist; stated without test; cited from earlier work
[3] = ip 5 μg/mouse/day x 5 days, CRF-OE mice
[4] = ip 5 μg/mouse/day x 5 days, Before (Week 0), listed as AB
[5] = ip 5 μg/mouse/day x 5 days, Before (Week 0), listed as AB, mean
[6] = ip 5 μg/mouse/day x 5 days, Week 1, listed as AB
[7] = ip 5 μg/mouse/day x 5 days, Week 1, listed as AB, mean
[8] = ip 5 μg/mouse/day x 5 days, Week 8, listed as AB
[9] = ip 5 μg/mouse/day x 5 days, Week 8, listed as AB, mean

In the case of “(cyclo 30-33)[DPhe12, Nle21,38, Cml27,40, Glu30, Lys33]Ac-h/rCRF9-41 [Astressin B]”, the “Onset of dark skin pigment after the final injection” value (CRF-OE mice [1]; [3]) is reported as at most 3 days, the “Time of darkest skin color / maximal pigment response after the final injection” value (CRF-OE mice [1]; [3]) is reported as 7 to 10 days and the “Re-grown hair maintained / retained after the final ip injection” value (CRF-OE mice [1]; ip 5 μg/mouse/day x 5 days, CRF-OE mice, listed as astressin B) is reported as at least 8 weeks. For the same substance, the “Re-grown hair maintained / retained after the final ip injection” value (CRF-OE mice [1]; ip 5 μg/mouse/day x 5 days, CRF-OE mice, listed as astressin-B) was 8 weeks, the “Back Hair Growth Score (BK)” value (CRF-OE mice [1]; [4]) was 2 and 1 (3×) and the “Skin pigmentation (Pg) score” value (CRF-OE mice [1]; [4]) was 0.0. The “Ventral Abdomen Hair Growth Score (VAb)” value (CRF-OE mice [1]; [4]) was 5 (3×) and 2.5, the “Back Hair Growth Score (BK)” value (CRF-OE mice [1]; [5]) was 1.25 and the “Skin pigmentation (Pg) score” value (CRF-OE mice [1]; [5]) was 0. The “Ventral Abdomen Hair Growth Score (VAb)” value (CRF-OE mice [1]; [5]) was 4.4, the “Skin pigmentation (Pg) score” value (CRF-OE mice [1]; ip 5 μg/mouse/day x 5 days, Week 1) was 10 and the “Back Hair Growth Score (BK)” value (CRF-OE mice [1]; [6]) was 9.5 and 10 and 9 (2×). The “Ventral Abdomen Hair Growth Score (VAb)” value (CRF-OE mice [1]; [6]) was 10 (2×) and 8 (2×), the “Back Hair Growth Score (BK)” value (CRF-OE mice [1]; [7]) was 9.4 and the “Ventral Abdomen Hair Growth Score (VAb)” value (CRF-OE mice [1]; [7]) was 9. For the same substance, the “Ventral Abdomen Hair Growth Score (VAb)” value (CRF-OE mice [1]; ip 5 μg/mouse/day x 5 days, Week 4) was 10, the “Back Hair Growth Score (BK)” value (CRF-OE mice [1]; ip 5 μg/mouse/day x 5 days, Week 4, listed as AB) was 10 (3×) and 9.5 and the “Back Hair Growth Score (BK)” value (CRF-OE mice [1]; ip 5 μg/mouse/day x 5 days, Week 4, listed as AB, mean) was 9.9. For the same substance, the “Ventral Abdomen Hair Growth Score (VAb)” value (CRF-OE mice [1]; ip 5 μg/mouse/day x 5 days, Week 4, mean) was 10, the “Back Hair Growth Score (BK)” value (CRF-OE mice [1]; [8]) was 10 and 9.5 and 8.5 and 8 and the “Ventral Abdomen Hair Growth Score (VAb)” value (CRF-OE mice [1]; [8]) was 10 (2×) and 8 (2×). For the same substance, the “Back Hair Growth Score (BK)” value (CRF-OE mice [1]; [9]) was 9, the “Ventral Abdomen Hair Growth Score (VAb)” value (CRF-OE mice [1]; [9]) was 9 and the Hair coverage (CRF-OE mice [1]; ip 5 μg/mouse/day x 5 days, at 2 weeks, four-month old male CRF-OE mice) was 95-100%. For the same substance, the “Re-grown hair largely maintained after the last ip injection” value (CRF-OE mice [1]; ip 5 μg/mouse/day x 5 days, four-month old male CRF-OE mice) was “up to 16 weeks”, the “Hair growth score (fully grown hair)” value (CRF-OE mice [1]; ip, four and seven weeks after the final injection, all mice) was 9-10 and the “Mice with dark skin” value (CRF-OE mice [1]; ip, one week after the final injection, fraction of mice) was 4/4. The “Growth of hair on the back, score out of 10” value (CRF-OE mice [2]) was 9, the “General conditions of treated mice” value (young CRF-OE mice) was “well and substantially the same” and the “Duration of inhibition of elevated ACTH release” value (ACTH release) was “over 12 hours”. The “Duration of action (long acting)” value (CRF1/CRF2 receptor) was at least 24 h.

Source: patent publication US10166271B2, “Methods for promoting hair growth” (THE REGENTS OF THE UNIVERSITY OF CALIFORNIA, priority 2006, dated 2019)
